Assay results: patent US20220119379A1, “IMMUNOMODULATOR” (HITGEN INC., priority 2019, published 2022)
Read-outs that look alike come from different tables or passages of the source.

Columns and labels:
[1] = system: CT26 cells; assay: Tumor inhibitory effect, CT26 tumor re-excitation model; assay type: in vivo, mice
Description: The tumor regression of each group of mice in the CT26 anti-tumor efficacy model of the above experimental example 4 was further observed. After 30 days of the last administration, CT26 cells were inoculated subcutaneously on the back. Each mouse was inoculated with 100 μL cell suspension containing 5×10^5 cells; mice that have not been treated with drugs were used as a control group to inoculate CT26 cells in the same way. The tumor was observed and the growth of the tumor was recorded.

[2] = target: T1, Sting protein (Homo sapiens, UniProt Q86WV6, G230A/H232R/R293Q/R71H); assay: Agonistic function test on Sting protein: IFN-β and CXCL10 (IP10) cytokines produced by THP1 cells (ELISA); assay type: cell-based; conditions: for EC50: 18 hours, ELISA of supernatant; for activity of stimulating IFN-β and CXCL10 (IP10) cytokines produced by THP1 cells (in words): listed compounds compared with the reference compound
T1 construct: endogenous in cells; host or cells: THP1 cells (Shanghai Cell Bank)
T1 sequence (Q86WV6 whole entry R71H/G230A/H232R/R293Q): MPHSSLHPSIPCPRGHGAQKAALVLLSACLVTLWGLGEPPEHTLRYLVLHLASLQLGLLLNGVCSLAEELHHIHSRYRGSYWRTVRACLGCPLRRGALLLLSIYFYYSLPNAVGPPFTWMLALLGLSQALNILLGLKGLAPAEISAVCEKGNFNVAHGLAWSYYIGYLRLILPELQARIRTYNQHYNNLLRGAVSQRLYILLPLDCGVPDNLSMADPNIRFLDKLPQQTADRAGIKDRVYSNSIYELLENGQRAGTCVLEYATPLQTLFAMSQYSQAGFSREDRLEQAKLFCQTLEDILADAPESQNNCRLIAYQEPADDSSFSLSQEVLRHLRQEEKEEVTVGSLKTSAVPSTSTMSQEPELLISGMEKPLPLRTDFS
Description: In this experiment, the function of sting agonist was evaluated by detecting the changes of IFN-β and CXCL10 (IP10) cytokines produced by human peripheral blood mononuclear cell line THP1 cells (Shanghai Cell Bank) stimulated by the compounds. On the first day of the experiment, the ELISA plate was coated according to the IFN-β (R&D, #DY814-05) and IP10 (BD, #550926) ELISA test kit instructions. The compound was dissolved into DMSO stock solution and diluted with culture medium to a 2× working concentration, added to a 96-well plate, 100 μL per well. The THP1 cells in the logarithmic growth phase were taken to count, and were diluted to a concentration of 2*10^6/mL, added to the above-mentioned 96-well plate containing the compounds, with […], per well, mixed well, and incubated in a 37° C., 5% CO2 incubator for 18 hours. On the second day, the above cell culture supernatant was taken, 100 μL per well, and tested according to IFN-β and IP10 ELISA test kits respectively. The OD450 value was read, and converted into IFN-β and IP10 concentration according to the standard curve, and fitted with GraphPad 5.0 to calculate the EC50 value of the dose-efficiency curve.

[3] = target: Sting protein (Homo sapiens, UniProt Q86WV6); assay: Binding affinity test of the compound and Sting protein by protein thermal transfer test (TSA); conditions: Kd fitted from change of ΔTm with compound concentration
Sting protein (Homo sapiens, UniProt Q86WV6), sequence (Q86WV6 whole entry H232R, species assumed): as the sequence (Q86WV6 whole entry R71H/G230A/H232R/R293Q) above, with H71R, A230G, Q293R counted along it
Description: The protein thermal transfer test (TSA) was used to determine the binding affinity of the compound to Sting protein. The 100 ug/ml Sting protein was mixed with different concentrations of the compound and 5× SYPRO Orange dye in a buffer of 20 mM Hepes, 150 mM NaCl, 1 mM MgCl2, 1 mM DTT, pH=7.5. The protein dissolution curve was measured on a qPCR instrument, the Tm value was fitted with Protein Thermal Shift Software 1.3 software, and the Tm difference of the protein was calculated when different concentrations of compound and no compound were added. The dissociation constant Kd was fitted and obtained according to the change of ΔTm with the concentration of the compound. […] The Kd value of each compound is classified according to the following instructions: […]

SMILES	tumor curve in CT26 tumor re-excitation model (FIG. 2) ([1]; 1.5 mg/kg)	EC50 ([2]; read-out: IFN-β EC50) [µM]	EC50 ([2]; read-out: IP10 EC50) [µM]	Kd [3] [µM]	activity of stimulating IFN-β and CXCL10 (IP10) cytokines produced by THP1 cells (in words) [2]	tumor curve in CT26 tumor re-excitation model (FIG. 2) ([1]; 1 mg/kg)	tumor curve in CT26 tumor re-excitation model (FIG. 2) ([1]; 4.5 mg/kg)	tumor curve in CT26 tumor re-excitation model (FIG. 2) ([1]; 3 mg/kg)
CCc1nc(C)sc1C(=O)Nc1nc2cc(C(N)=O)cc(OCCCN3CCN(CC)CC3)c2n1C/C=C/Cn1c(NC(=O)c2cc(C)nn2CC)nc2cc(C(N)=O)cc(SC)c21 [Example 17]	overlap	0.1 to 1	0.01 to 0.1	1 to 10	–	–	–	–
CCc1nc(C)sc1C(=O)Nc1nc2cc(C(N)=O)cc(SC)c2n1C/C=C/Cn1c(NC(=O)c2cc(C)nn2CC)nc2cc(C(N)=O)cc(OCCCN3CCOCC3)c21 [Example 5]	overlap	0.01 to 0.1	< 0.01	1 to 10	comparable or even higher activity	–	–	–
CCc1nc(C)sc1C(=O)Nc1nc2cc(C(N)=O)cc(OC)c2n1C/C=C/Cn1c(NC(=O)c2cc(C)nn2CC)nc2cc(C(N)=O)cc(OCCCN3CCN(C(C)=O)CC3)c21 [Example 29]	–	0.1 to 1	0.01 to 0.1	1 to 10	–	overlap	–	–
CCc1nc(C)sc1C(=O)Nc1nc2cc(C(N)=O)cc(OC)c2n1C/C=C/Cn1c(NC(=O)c2cc(C)nn2CC)nc2cc(C(N)=O)cc(OCCCN3CCOCC3)c21 [Example 2, (E)-N-(5-carbamoyl-1-(4-(5-carbamoyl-2-(1-ethyl-3-methyl-1H-pyrazole-5-formylamino)-7-(3-morpholino)-1H-benzo[d]imidazol-1-yl)but-2-en-1-yl)-7-methoxy-1H-benzo[d]imidazol-2-yl)-4-ethyl-2-methylthiazole-5-formamide]	overlap	0.01 to 0.1	0.01 to 0.1	1 to 10	comparable or even higher activity	–	overlap	–
CCc1nc(C)sc1C(=O)Nc1nc2cc(C(N)=O)cc(SC)c2n1C/C=C/Cn1c(NC(=O)c2cc(C)nn2CC)nc2cc(C(N)=O)cc(OCCCN3CCN(C(C)C)CC3)c21 [Example 22]	–	0.1 to 1	0.01 to 0.1	1 to 10	–	–	–	–
CCc1nc(C)sc1C(=O)Nc1nc2cc(C(N)=O)cc(OCCCN3CCOCC3)c2n1C/C=C/Cn1c(NC(=O)c2c(F)c(C)nn2CC)nc2cc(C(N)=O)cc(OC)c21 [Example 47]	–	> 1	0.01 to 0.1	1 to 10	–	–	–	–
CCc1nc(C)sc1C(=O)Nc1nc2cc(C(N)=O)cc(SC)c2n1C/C=C/Cn1c(NC(=O)c2cc(C)nn2CC)nc2cc(C(N)=O)cc(OCCCN3CCN(C4CC4)CC3)c21 [Example 23]	–	0.01 to 0.1	0.01 to 0.1	1 to 10	comparable or even higher activity	–	–	–
CCc1nc(C)sc1C(=O)Nc1nc2cc(C(N)=O)cc(OC)c2n1C/C=C/Cn1c(NC(=O)c2cc(C)nn2CC)nc2cc(C(N)=O)cc(OCCCN3CCN(C4CC4)CC3)c21 [Example 15]	–	0.01 to 0.1	0.01 to 0.1	1 to 10	comparable or even higher activity	overlap	–	overlap
CCc1nc(C)sc1C(=O)Nc1nc2cc(C(N)=O)cc(SC)c2n1C/C=C/Cn1c(NC(=O)c2cc(C)nn2CC)nc2cc(C(N)=O)cc(OCCCN3CCN(C)CC3)c21 [Example 20]	–	0.1 to 1	0.01 to 0.1	1 to 10	–	–	–	–
CCc1nc(C)sc1C(=O)Nc1nc2cc(C(N)=O)cc(OCCCN3CCN(C4CC4)CC3)c2n1C/C=C/Cn1c(NC(=O)c2cc(C)nn2CC)nc2cc(C(N)=O)cc(SC)c21 [Example 19]	–	< 0.01	< 0.01	1 to 10	comparable or even higher activity	–	–	–
CCc1nc(C)sc1C(=O)Nc1nc2cc(C(N)=O)cc(OC)c2n1C/C=C/Cn1c(NC(=O)c2c(F)c(C)nn2CC)nc2cc(C(N)=O)cc(OCCCN3CCOCC3)c21 [Example 48]	–	0.1 to 1	0.01 to 0.1	1 to 10	–	–	–	–
